Measurements published in patent EP0470490B1, “Substituted pyrroles” (F. HOFFMANN-LA ROCHE AG, priority 1990, dated 1992).
Counter-ions that a name gives are not always drawn.

target: protein kinase C; assay: in vitro protein kinase C inhibition: protein kinase-induced incorporation of 32P from [γ-32P]ATP into histone; assay type: biochemical; details: concentration of test compound which reduces by 50% the protein kinase-induced incorporation of 32P from [γ-32P]ATP into histone
Text: Research Comm. 19 (1979) 1218. The IC50 values in the following Table are that concentration of test compound which reduces by 50% the protein kinase-induced incorporation of ^32P from [γ-^32P]ATP into histone. Table

Row | IC50 [nM] | SMILES
1 | 30 | CN1C[C@@H]2Cc3c(C4=C(c5cn(C)c6ccccc56)C(=O)NC4=O)c4ccccc4n3C[C@@H]2C1 (relative stereo) [Example 6, cis-3-[2,3,3a,4,11,11a-hexahydro-2-methyl-1H-pyrrolo[3',4':4,5]pyrido-[1,2-a]indol-10-yl]-4-(1-methyl-3-indolyl)-1H-pyrrole-2,5-dione hydrochloride]
2 | 7 | CN1C[C@H]2Cc3c(C4=C(c5cn(C)c6ccccc56)C(=O)NC4=O)c4ccccc4n3C[C@@H]2C1 (relative stereo) [Example 14, trans-3-(2,3,3a,4,11,11a-hexahydro-2-methyl-1H-pyrrolo[3',4':4,5]pyrido[1,2-a]indol-10-yl)-4-(1-methyl-3-indolyl)-1H-pyrrole-2,5-dione hydrochloride]
3 | 40 | Cn1cc(C2=C(c3c4n(c5ccccc35)CCC3(CCNC3)C4)C(=O)NC2=O)c2ccccc21 (stereo not drawn) [Example 1, 3-[6,7,8,9-tetrahydrospiro[pyrido[1,2-a]indole-8,3'-pyrrolidin-10-yl]-4-(1-methyl-3-indolyl)-pyrrole-2,5-dione trifluoroacetate]
